Source: article doi:10.1101/2023.04.18.537371v1 (bioRxiv, 2023)
Peptide text beside a SMILES is read from it.

Experiments:
[1] = Single rising dose pharmacokinetics in beagle dogs; format: in vivo, beagle dog; settings: for AUC(0-inf) / AUC(0-t) / Cmax / Tmax / half-life: male, beagle, dog, plasma, sc
CYP2D6 = CYP2D6 (Homo sapiens, UniProt P10635); test: CYP time-dependent inhibition assay; format: in vitro ADME
[2] = tested on: cynomolgus monkey hepatocytes; test: Hepatocyte stability; format: in vitro ADME; settings: 1.00 μM
human hepatocytes [3] = test: Hepatocyte stability; format: in vitro ADME; settings: 1.00 μM
Plasma stability [4] = format: in vitro ADME, beagle dog
mouse hepatocytes = test: Metabolite identification in hepatocytes; format: in vitro ADME; settings: cryopreserved mouse hepatocytes, FC-12738 10 μM, 37 °C, 240 min, LC-UV-MS
rat hepatocytes = test: Metabolite identification in hepatocytes; format: in vitro ADME; settings: cryopreserved rat hepatocytes, FC-12738 10 μM, 37 °C, 240 min, LC-UV-MS
Plasma stability [5] = format: in vitro ADME, SD rat
CYP2B6 [6] = format: in vitro ADME; settings: cryopreserved human hepatocytes, three donors, 0.100 to 15.0 μM, 48 h, 37°C
CYP2C9 = CYP2C9 (Homo sapiens, UniProt P11712); test: CYP time-dependent inhibition assay; format: in vitro ADME
human hepatocytes [7] = test: LDH release cytotoxicity in the CYP induction assay; format: cell-based; settings: three donors, 0.100, 1.00, 3.00, 10.0 and 15.0 μM
CYP2B6 [8] = biological target: T1, CYP2B6 (Homo sapiens, UniProt P20813); test: biochemical; format: in vitro ADME
T1 sequence (P20813 1-491): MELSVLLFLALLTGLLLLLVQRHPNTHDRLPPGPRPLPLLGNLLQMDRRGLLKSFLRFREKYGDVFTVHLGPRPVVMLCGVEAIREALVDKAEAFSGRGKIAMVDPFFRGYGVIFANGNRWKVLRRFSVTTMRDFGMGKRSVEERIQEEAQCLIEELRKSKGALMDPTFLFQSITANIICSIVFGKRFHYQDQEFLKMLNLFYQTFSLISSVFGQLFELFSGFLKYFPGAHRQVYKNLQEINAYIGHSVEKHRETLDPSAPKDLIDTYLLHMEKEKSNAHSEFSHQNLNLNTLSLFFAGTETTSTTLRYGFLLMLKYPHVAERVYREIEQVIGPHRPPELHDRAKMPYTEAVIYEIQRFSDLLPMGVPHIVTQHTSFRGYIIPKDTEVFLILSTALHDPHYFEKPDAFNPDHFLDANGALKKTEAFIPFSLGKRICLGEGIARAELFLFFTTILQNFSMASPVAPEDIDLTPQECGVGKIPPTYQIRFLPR

Plasma stability [9] = format: in vitro ADME, human
MATE2-K = MATE2-K (Homo sapiens, UniProt Q86VL8); test: Transporter inhibition in HEK293 cells; format: in vitro ADME
dog hepatocytes = test: Metabolite identification in hepatocytes; format: in vitro ADME; settings: cryopreserved dog hepatocytes, FC-12738 10 μM, 37 °C, 240 min, LC-UV-MS
[10] = In vitro blood to plasma partitioning; format: in vitro ADME, rat; settings: for Mean erythrocyte to plasma ratio KE/P: rat whole blood, 37°C, 60 min
CYP1A2 = format: in vitro ADME; settings: cryopreserved human hepatocytes, three donors, 0.100 to 15.0 μM, 48 h, 37°C
P-gp = P-gp (Homo sapiens, UniProt P08183); test: Inhibition of P-gp in Caco-2 cells; format: in vitro ADME
CYP3A4 = test: CYP induction assay in human hepatocytes; format: in vitro ADME; settings: cryopreserved human hepatocytes, three donors, 0.100 to 15.0 μM, 48 h, 37°C
[11] = cutoff IC50 shift >= 1.5-fold, 30 min pre-incubation ± NADPH

CYP2C9, sequence (P11712 whole entry): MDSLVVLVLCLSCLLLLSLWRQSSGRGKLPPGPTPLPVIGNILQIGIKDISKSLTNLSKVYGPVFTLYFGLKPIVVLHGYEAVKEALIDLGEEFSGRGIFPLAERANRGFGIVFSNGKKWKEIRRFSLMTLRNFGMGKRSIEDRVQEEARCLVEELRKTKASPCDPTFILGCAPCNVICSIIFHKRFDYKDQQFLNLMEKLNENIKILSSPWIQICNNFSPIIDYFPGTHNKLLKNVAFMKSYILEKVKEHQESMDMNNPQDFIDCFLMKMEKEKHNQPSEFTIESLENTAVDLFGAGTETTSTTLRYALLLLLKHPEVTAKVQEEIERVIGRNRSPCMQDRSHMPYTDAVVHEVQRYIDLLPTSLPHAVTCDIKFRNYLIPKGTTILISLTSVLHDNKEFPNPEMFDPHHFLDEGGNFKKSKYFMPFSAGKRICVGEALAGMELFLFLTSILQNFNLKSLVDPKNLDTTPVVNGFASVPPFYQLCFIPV
CYP2D6, sequence (P10635 whole entry): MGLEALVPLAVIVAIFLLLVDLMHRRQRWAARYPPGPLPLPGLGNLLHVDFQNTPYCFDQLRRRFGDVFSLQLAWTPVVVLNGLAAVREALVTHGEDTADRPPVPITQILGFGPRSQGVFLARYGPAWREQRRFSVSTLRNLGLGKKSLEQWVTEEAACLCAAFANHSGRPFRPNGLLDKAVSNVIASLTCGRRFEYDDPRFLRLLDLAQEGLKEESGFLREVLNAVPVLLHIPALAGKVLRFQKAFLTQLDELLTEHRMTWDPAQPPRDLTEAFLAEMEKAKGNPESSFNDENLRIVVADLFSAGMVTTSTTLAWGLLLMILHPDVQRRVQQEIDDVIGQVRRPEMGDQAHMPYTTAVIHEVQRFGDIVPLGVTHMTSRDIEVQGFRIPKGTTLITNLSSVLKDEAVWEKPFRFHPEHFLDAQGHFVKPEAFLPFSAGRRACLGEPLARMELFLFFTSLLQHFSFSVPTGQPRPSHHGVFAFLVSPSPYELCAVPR
MATE2-K, sequence (Q86VL8 1-566 isoform Q86VL8-3): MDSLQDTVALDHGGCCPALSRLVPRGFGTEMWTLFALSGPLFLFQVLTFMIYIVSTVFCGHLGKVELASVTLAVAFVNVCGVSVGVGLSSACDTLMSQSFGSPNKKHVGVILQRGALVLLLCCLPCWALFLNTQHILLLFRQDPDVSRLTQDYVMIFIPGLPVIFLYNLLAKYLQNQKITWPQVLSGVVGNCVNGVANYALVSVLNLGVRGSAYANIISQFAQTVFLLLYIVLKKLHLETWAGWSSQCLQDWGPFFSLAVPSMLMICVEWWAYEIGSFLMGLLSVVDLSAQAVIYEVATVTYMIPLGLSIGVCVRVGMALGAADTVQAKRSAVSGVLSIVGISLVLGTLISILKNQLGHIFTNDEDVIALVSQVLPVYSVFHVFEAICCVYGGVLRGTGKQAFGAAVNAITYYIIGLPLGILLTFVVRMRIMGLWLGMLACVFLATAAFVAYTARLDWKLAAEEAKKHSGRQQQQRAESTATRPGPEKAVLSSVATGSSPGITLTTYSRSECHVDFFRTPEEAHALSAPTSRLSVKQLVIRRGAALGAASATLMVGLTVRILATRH
P-gp, sequence (P08183 whole entry): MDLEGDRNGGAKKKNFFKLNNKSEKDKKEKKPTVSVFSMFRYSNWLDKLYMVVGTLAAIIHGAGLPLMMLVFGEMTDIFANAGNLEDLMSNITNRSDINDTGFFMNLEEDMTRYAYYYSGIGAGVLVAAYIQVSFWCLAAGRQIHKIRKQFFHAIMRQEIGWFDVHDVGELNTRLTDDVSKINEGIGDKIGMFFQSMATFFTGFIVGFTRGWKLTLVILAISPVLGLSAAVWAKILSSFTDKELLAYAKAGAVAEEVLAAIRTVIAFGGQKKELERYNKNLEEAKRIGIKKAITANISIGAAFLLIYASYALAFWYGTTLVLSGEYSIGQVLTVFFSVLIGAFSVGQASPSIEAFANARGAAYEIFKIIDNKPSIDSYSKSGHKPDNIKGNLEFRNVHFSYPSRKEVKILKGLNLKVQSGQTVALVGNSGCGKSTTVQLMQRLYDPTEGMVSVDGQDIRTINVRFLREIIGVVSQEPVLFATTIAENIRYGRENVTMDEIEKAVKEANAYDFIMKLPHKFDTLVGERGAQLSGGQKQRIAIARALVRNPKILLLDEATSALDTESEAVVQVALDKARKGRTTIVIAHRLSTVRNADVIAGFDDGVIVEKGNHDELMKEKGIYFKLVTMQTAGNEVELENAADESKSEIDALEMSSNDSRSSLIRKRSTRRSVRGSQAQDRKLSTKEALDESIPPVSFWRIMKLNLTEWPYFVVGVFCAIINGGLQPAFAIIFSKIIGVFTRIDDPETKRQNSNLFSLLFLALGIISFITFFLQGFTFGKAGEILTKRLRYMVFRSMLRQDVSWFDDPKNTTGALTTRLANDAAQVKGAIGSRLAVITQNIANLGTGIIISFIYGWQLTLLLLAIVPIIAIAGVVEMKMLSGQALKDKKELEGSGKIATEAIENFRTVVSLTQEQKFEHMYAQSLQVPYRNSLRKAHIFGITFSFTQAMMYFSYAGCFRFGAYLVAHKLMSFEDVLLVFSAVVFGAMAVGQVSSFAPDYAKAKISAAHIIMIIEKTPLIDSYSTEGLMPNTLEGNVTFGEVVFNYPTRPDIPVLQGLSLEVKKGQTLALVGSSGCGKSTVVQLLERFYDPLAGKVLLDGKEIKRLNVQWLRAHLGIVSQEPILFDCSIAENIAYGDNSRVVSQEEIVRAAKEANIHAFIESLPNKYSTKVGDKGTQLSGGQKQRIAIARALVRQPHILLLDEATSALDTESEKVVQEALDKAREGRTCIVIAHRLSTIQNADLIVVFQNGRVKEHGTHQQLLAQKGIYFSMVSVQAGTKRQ

CC(C)[C@@H](NC(=O)[C@H](N)Cc1ccc(O)cc1)C(=O)N[C@H](CC(=O)O)C(=O)N[C@H](CCCCN)C(=O)N[C@H](CCCNC(=N)N)C(=O)O [FC-12738, (D-Tyr)-(D-Val)-(D-Asp)-(D-Lys)-(D-Arg)] (HELM PEPTIDE1{[dY].[dV].[dD].[dK].[dR]}$$$$V2.0)
Dose dependence of systemic exposure (AUC0-last and Cmax) ([1]; male beagle dogs, SC 1 to 25 mg/kg): increased with dose proportionally | AUC(0-inf) ([1]; 1 mg/kg): 2770 ng·h/mL | AUC(0-t) ([1]; 1 mg/kg): 2760 ng·h/mL | Cmax ([1]; 1 mg/kg): 925 ng/mL | Tmax ([1]; 1 mg/kg): 1 h | half-life ([1]; 1 mg/kg): 0.957 h | AUC(0-inf) ([1]; 5 mg/kg): 16800 ng·h/mL | AUC(0-t) ([1]; 5 mg/kg): 16700 ng·h/mL | Cmax ([1]; 5 mg/kg): 7090 ng/mL | Tmax ([1]; 5 mg/kg): 1 h | half-life ([1]; 5 mg/kg): 0.906 h | AUC(0-inf) ([1]; 25 mg/kg): 72800 ng·h/mL | AUC(0-t) ([1]; 25 mg/kg): 72800 ng·h/mL | Cmax ([1]; 25 mg/kg): 33300 ng/mL | Tmax ([1]; 25 mg/kg): 0.667 h | half-life ([1]; 25 mg/kg): 2.01 h | IC50 (CYP2D6): > 100 µM | Time-dependent inhibition of CYP2D6 (CYP2D6; [11]): no time-dependent inhibition | intrinsic clearance CLint(hep) ([2]; cryopreserved cynomolgus monkey hepatocytes, 37.0°C, 120 min): < 1.9 μL/min/10^6 cells | half-life ([2]; cryopreserved cynomolgus monkey hepatocytes, 37.0°C, 120 min, LC-MS/MS): > 6.212 h | hepatic clearance CLint(liver) ([2]; scaled from cynomolgus monkey hepatocytes): < 6.7 mL/min/kg | intrinsic clearance CLint(hep) (human hepatocytes [3]; cryopreserved human hepatocytes, 37.0°C, 120 min): < 1.9 μL/min/10^6 cells | half-life (human hepatocytes [3]; cryopreserved human hepatocytes, 37.0°C, 120 min, LC-MS/MS): > 6.212 h | hepatic clearance CLint(liver) (human hepatocytes [3]; scaled from human hepatocytes): < 5.2 mL/min/kg | half-life (Plasma stability [4]; beagle dog plasma, 2.00 μM, 37.0 °C, up to 120 min): > 6.212 h | remaining at 10 min, 2 μM (Plasma stability [4]; beagle, dog, plasma): 106% | remaining at 0.5 h, 2 μM (Plasma stability [4]; beagle, dog, plasma): 105% | remaining at 1 h, 2 μM (Plasma stability [4]; beagle, dog, plasma): 106% | remaining at 2 h, 2 μM (Plasma stability [4]; beagle, dog, plasma): 101% | Relative Abundance (UV%) (mouse hepatocytes): 88.92% | Relative Abundance (UV%) (rat hepatocytes): 87.56% | half-life (Plasma stability [5]; SD rat plasma, 2.00 μM, 37.0 °C, up to 120 min): > 6.212 h | remaining at 10 min, 2 μM (Plasma stability [5]; SD, rat, plasma): 104% | remaining at 0.5 h, 2 μM (Plasma stability [5]; SD, rat, plasma): 102% | remaining at 1 h, 2 μM (Plasma stability [5]; SD, rat, plasma): 113% | remaining at 2 h, 2 μM (Plasma stability [5]; SD, rat, plasma): 104% | Induction of CYP2B6 (enzyme activity and gene expression) (CYP2B6 [6]): not considered as an inducer | IC50 (CYP2C9): > 100 µM | Time-dependent inhibition of CYP2C9 (CYP2C9; [11]): no time-dependent inhibition | Cytotoxicity (released LDH) (human hepatocytes [7]): no cytotoxicity | IC50 (CYP2B6 [8]): > 100 µM | half-life (Plasma stability [9]; human plasma, 2.00 μM, 37.0 °C, up to 120 min): > 6.212 h | remaining at 10 min, 2 μM (Plasma stability [9]; human, plasma): 93.3% | remaining at 0.5 h, 2 μM (Plasma stability [9]; human, plasma): 93.6% | remaining at 1 h, 2 μM (Plasma stability [9]; human, plasma): 90.6% | remaining at 2 h, 2 μM (Plasma stability [9]; human, plasma): 85.6% | IC50 (MATE2-K): > 100 µM | Relative Abundance (UV%) (dog hepatocytes): 80.76% | Mean erythrocyte to plasma ratio KE/P ([10]; 0.200 μM): < 0.21 | Mean erythrocyte to plasma ratio KE/P ([10]; 2.00 μM): < 0.11 | Mean erythrocyte to plasma ratio KE/P ([10]; 10.0 μM): < 0.03 | tissue to tissue ratio at 1 h, 0.2 µM ([10]; rat, whole blood): 0.48 | tissue to tissue ratio at 1 h, 2 µM ([10]; rat, whole blood): 0.5 | tissue to tissue ratio at 1 h, 10 µM ([10]; rat, whole blood): 0.47 | Induction of CYP1A2 (enzyme activity and gene expression) (CYP1A2): not considered as an inducer | IC50 (P-gp): > 100 µM | Induction of CYP3A4 (enzyme activity and gene expression) (CYP3A4): not considered as an inducer
